Values quoted from earlier work in US6872696B2, “Particle with substituted polyvinyl alcohol coating” (Genencor International, Inc., priority 2000, dated 2005).

Details: neutral unreacted compound in water, 25 degrees C

Solubility g/100 ml H2O | SMILES
infinite | OCCS [2-mercaptoethanol]
0.67 g/100 ml H2O | CCS [ethanethiol]
infinite | O=C(O)/C=C\C(=O)O [maleic]
